One experiment deals with phosphorylated p65. Put plainly: p65 phosphorylation in brain after intracranial TNFα. In kind it is in vivo, Wild-type mice (B6/SJL). The note with it: 2 mg/kg i.p., mouse brain, normalized to actin. The protocol:
After 5 minutes, mice were intracranially injected with 0.5 mg of TNFα. Mice were euthanized ten minutes after the intracranial injection. The portion of the brain surrounding the intracranial site of injection was collected, and proteins were extracted. Phosphorylation of p65 was measured with an antibody towards phosphorylated p65.

A short description of experiment [1]: Case: treatment of patient with autism and seizure disorder. In kind it is in vivo, human patient. The conditions noted are these: 1.0 mg three times per day. From the text:
A patient, who was diagnosed with autism and a seizure disorder, had brain surgery and began rehabilitation the following month.

Molecules are shown by their SMILES.

With `C1=CCC(c2cccnc2)NC1` (racemic) [Anatabine, 1,2,3,6-tetrahydro-[2,3′]bipyridinyl], in the experiment with phosphorylated p65, the p65 phosphorylation result is reported as “reduced p65 phosphorylation in mouse brain”. Also, the cognitive benefits entry in experiment [1] (from approximately one week) is “improved communication and language skills and the ability to focus”. Also, in experiment [1] (over 3½ weeks, one patient), the frequency of seizures entry is given as “decreased from one per day to approximately one per week”.

The values are drawn from patent publication US20120196899A1, “METHODS AND PRODUCTS FOR TREATING INFLAMMATION” (Rock Creek Pharmaceuticals, Inc., priority 2010, published 2012).
